Results published in patent US7507547B2, “Screening assays for antioxidants and antiproliferative compounds” (University of Massachusetts, priority 2004, dated 2009).
Read-outs that look alike come from different tables or passages of the source.

Key:
NTR1 = biological target: T1, NTR1 (Homo sapiens, UniProt P30989); experiment: ^125I-NT binding to PC3 cells; settings: for NT Binding Assay: ability to enhance NT binding in PC3 cells; for Effect on NT binding in PC3 cells: n=3; for NT binding increased as much as / up to (fold): maximal enhancement of NT binding to PC3 cells
T1 construct: endogenous in cells; host or cells: PC3 cells (ATCC)
T1 sequence (P30989 whole entry): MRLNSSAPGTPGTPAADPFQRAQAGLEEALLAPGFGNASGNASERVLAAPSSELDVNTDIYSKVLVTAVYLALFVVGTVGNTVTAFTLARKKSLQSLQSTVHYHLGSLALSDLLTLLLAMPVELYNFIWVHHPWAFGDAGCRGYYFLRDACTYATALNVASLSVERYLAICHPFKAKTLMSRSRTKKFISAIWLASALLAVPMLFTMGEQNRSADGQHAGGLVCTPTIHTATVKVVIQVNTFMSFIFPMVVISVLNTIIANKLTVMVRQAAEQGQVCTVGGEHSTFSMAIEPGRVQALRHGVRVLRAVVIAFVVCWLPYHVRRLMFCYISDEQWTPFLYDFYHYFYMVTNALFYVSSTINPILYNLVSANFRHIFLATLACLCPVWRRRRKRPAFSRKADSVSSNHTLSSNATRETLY

[1] = parameters: key: +: All of the compounds listed in Table 12 were anticancerous; settings: from anticancer literature; cited from earlier work
[2] = tested on: NT-induced inositol phosphate (IP) formation in PC3 cells; experiment: NT-induced IP formation in PC3 cells; format: cell-based; settings: for IC50: Homo sapiens, PC-3; for IP Formation Efficacy (% decrease): maximal % decrease in NT-induced IP formation
[3] = general reducing agents and antioxidants
[4] = [agent] that decreased IP formation by 40%
[5] = [agent] giving 75% increase in NT binding
[6] = maximal % increase in NT binding observed for each agent
[7] = [agent] giving 50% decrease in IP formation

Q: Which “Effect on NT binding” value (NTR1; [3]) does the source give for `O[C@H](CS)[C@H](O)CS` (racemic) [DTT, dithiothreitol] here?
A: not much affected

Q: With `O=CC[C@@H](O)[C@H](O)[C@H](O)CO` [2-deoxyglucose] as the compound, how does the “NT Binding Assay” value (NTR1) read?
A: +

Q: What about the Anti-cancer [1] of the same compound?
A: +

Q: With `Oc1cc(O)c2c(c1)O[C@H](c1ccc(O)c(O)c1)[C@@H](O)C2` [(+)-catechin] as the compound, how does the “Effect on NT binding in PC3 cells” value (NTR1; used at 10-100 μM) read?
A: without effect

Q: What does the source list for `CC1=C(C)C(=O)C(CCCCC#CCCCC#CCO)=C(C)C1=O` [AA861]?
A: NT Binding Efficacy % increase (NTR1; LOX blockers): 155 % increase; IC50 [2, 4]: 7 µM

Q: For `COc1cc2ncnc(Nc3cccc(Cl)c3)c2cc1OC` [AG1478], which “NT Binding Assay” value (NTR1) is on record?
A: +

Q: What about the Anti-cancer [1] of the same compound?
A: +

Q: Which results are given for `O=c1cc(-c2ccc(O)cc2)oc2cc(O)cc(O)c12` [Apigenin]?
A: NT Binding Assay (NTR1): +; Anti-cancer [1]: +

Q: With `CC(=O)OCOC(=O)CN(CC(=O)OCOC(C)=O)c1ccccc1OCCOc1ccccc1N(CC(=O)OCOC(C)=O)CC(=O)OCOC(C)=O` [BAPTA-AM, 1,2-bis(o-aminophenoxy)ethane-N,N,N′,N′-tetraacetic acid tetra(acetoxymethyl) ester] as the compound, how does the “Effect on NT binding” value (NTR1; 50 μM BAPTA-AM) read?
A: nor was NT binding altered

Q: For `COc1ccc(O)c(C(C)(C)C)c1` [BHA, butylated hydroxy anisole], which EC50 (NTR1; [5]) is on record?
A: 110 µM

Q: With `COC(=O)C1=C(C)NC(C)=C([N+](=O)[O-])C1c1ccccc1C(F)(F)F` (stereo not drawn) [BayK-8644] as the compound, how does the EC50 (NTR1; [5]) read?
A: 16 µM

Q: For `O=C(/C=C/c1ccc(O)c(O)c1)OCCc1ccccc1` [CAPE, caffeic acid phenethyl ester], which “NT Binding Efficacy % increase” value (NTR1; LOX blockers) is on record?
A: 220 % increase

Q: And the “NT binding increased as much as / up to (fold)” value (NTR1)?
A: ≤ 2.8 fold

Q: And the IC50 [2, 4]?
A: 18 µM

Q: With `COc1ccc([C@@H]2Sc3ccccc3N(CCN(C)C)C(=O)[C@@H]2OC(C)=O)cc1` [Diltiazem, diltiazem] as the compound, how does the “NT Binding Efficacy % increase” value (NTR1; [6]) read?
A: 38 % increase

Q: And the “NT binding increased as much as / up to (fold)” value (NTR1)?
A: ≤ 1.4 fold

Q: Which “Increase in NT binding” value (NTR1) does the source give for `O=C(O)CN(CCOCCOCCN(CC(=O)O)CC(=O)O)CC(=O)O` [EGTA, ethylene glycol tetra-acetic acid] here?
A: 38±6 % increase

Q: For `COC(=O)c1c(C)[nH]c(C)c1C(=O)c1ccccc1Cc1ccccc1` [FPL-64176], which EC50 (NTR1; [5]) is on record?
A: 29 µM

Q: Which “NT Binding Assay” value (NTR1) does the source give for `COc1ccc2c(c1)c(C1=C(c3c[nH]c4ccccc34)C(=O)NC1=O)cn2CCCN(C)C` [Go-6983] here?
A: +

Q: What about the Anti-cancer [1] of the same compound?
A: +

Q: Which IC50 [2, 4] does the source give for `Cc1cc2c(C(C)C)c(O)c(O)c(C=O)c2c(O)c1-c1c(C)cc2c(C(C)C)c(O)c(O)c(C=O)c2c1O` [Gossypol, gossypol] here?
A: 20 µM

Q: With `CCCc1c(OCCCCc2nnn[nH]2)ccc(C(C)=O)c1O` [LY171883] as the compound, how does the “NT Binding Efficacy % increase” value (NTR1; LOX blockers) read?
A: 157 % increase

Q: What about the EC50 (NTR1; [agent] giving 100% increase in NT binding) of the same compound?
A: 34 µM

Q: Which “Effect on NT binding in PC3 cells” value (NTR1; used at 1-3 mM) does the source give for `CC(=O)N[C@@H](CS)C(=O)O` [N-acetyl cysteine] here?
A: without effect

Q: With `COCCOC(=O)C1=C(C)NC(C)=C(C(=O)OC(C)C)C1c1cccc([N+](=O)[O-])c1` (stereo not drawn) [NIM, nimodipine] as the compound, how does the IC50 [2, 7] read?
A: 6 µM

Q: With `O=C(NCCCCCCNC(=O)ON=C1CCCCC1)ON=C1CCCCC1` [RHC-80267] as the compound, how does the “NT Binding Assay” value (NTR1) read?
A: +

Q: And the Anti-cancer [1]?
A: +

Q: With `CC1=C(/C=C/C(C)=C/C=C/C(C)=C/C(=O)O)C(C)(C)CCC1` [Retinoic Acid, retinoic acid] as the compound, how does the “NT Binding Efficacy % increase” value (NTR1; LOX blockers) read?
A: 180 % increase

Q: And the IC50 [2, 4]?
A: 7 µM

Q: What does the source list for `Cn1cc(C2=C(c3ccc(Cl)cc3Cl)C(=O)NC2=O)c2ccccc21` [SB-216763]?
A: NT Binding Assay (NTR1): +; Anti-cancer [1]: +

Q: For `Cc1cc(C)c(/C=C2\C(=O)Nc3ccccc32)[nH]1` [SU5416], which Anti-cancer [1] is on record?
A: +

Q: Which “NT Binding Assay” value (NTR1) does the source give for `CC(=O)O[C@H]1C(=O)[C@@]2(C)[C@H]([C@H](OC(=O)c3ccccc3)[C@]3(O)C[C@H](OC(=O)[C@H](O)[C@@H](NC(=O)c4ccccc4)c4ccccc4)C(C)=C1C3(C)C)[C@]1(OC(C)=O)CO[C@@H]1C[C@@H]2O` [Taxol] here?
A: +

Q: Which “Effect on NT binding” value (NTR1; [3]) does the source give for `O=C1O[C@H]([C@@H](O)CO)C(O)=C1O` [ascorbic acid] here?
A: not much affected

Q: And the “Effect on NT binding in PC3 cells” value (NTR1; used at 20-180 μM)?
A: ineffective

Q: With `N.N.[Cl][Pt][Cl]` [cis-platin] as the compound, how does the “NT Binding Assay” value (NTR1) read?
A: +

Q: What about the Anti-cancer [1] of the same compound?
A: +

Q: With `CC/C(=C(/CC)c1ccc(O)cc1)c1ccc(O)cc1` [diethylstilbesterol] as the compound, how does the “NT Binding Assay” value (NTR1) read?
A: +

Q: What about the Anti-cancer [1] of the same compound?
A: +

Q: For `O=c1oc2c(O)c(O)cc3c(=O)oc4c(O)c(O)cc1c4c23` [ellagic acid], which “Effect on NT binding in PC3 cells” value (NTR1; used at 10-100 μM) is on record?
A: without effect

Q: Which results are given for `CC(C)=CCCC(C)=CCCC(C)=CCO` [farnesol]?
A: NT Binding Assay (NTR1): +; Anti-cancer [1]: +

Q: Which IC50 [2, 7] does the source give for `CCOC(=O)C1=C(C)NC(C)=C(C(=O)OC)C1c1cccc(Cl)c1Cl` (stereo not drawn) [felodipine] here?
A: 1 µM

Q: For `Fc1ccc(C(c2ccc(F)cc2)N2CCN(C/C=C/c3ccccc3)CC2)cc1` [flunarizine], which “NT Binding Efficacy % increase” value (NTR1; [6]) is on record?
A: 45 % increase

Q: For `O=c1c(-c2ccc(O)cc2)coc2cc(O)cc(O)c12` [genistein], which “NT Binding Assay” value (NTR1) is on record?
A: +

Q: And the Anti-cancer [1]?
A: +

Q: For `N[C@@H](CCC(=O)N[C@@H](CS)C(=O)NCC(=O)O)C(=O)O` [glutathione], which “Effect on NT binding in PC3 cells” value (NTR1; used at 1-3 mM) is on record?
A: without effect

Q: With `Clc1ccc(COC(Cn2ccnc2)c2ccc(Cl)cc2Cl)c(Cl)c1` (stereo not drawn) [miconazole] as the compound, how does the “IP Formation Efficacy (% decrease)” value [2] read?
A: 54 % decrease

Q: For `CCOC(=O)C1=C(C)NC(C)=C(C(=O)OC)C1c1cccc([N+](=O)[O-])c1` (stereo not drawn) [nitrendipine], which IC50 [2, 7] is on record?
A: 2 µM

Q: For `c1cnc2c(c1)ccc1cccnc12` [o-phenanthroline], which “NT Binding Assay” value (NTR1) is on record?
A: +

Q: What about the Anti-cancer [1] of the same compound?
A: +

Q: What does the source list for `Cc1ncc(CO)c(CO)c1O` [pyridoxine]?
A: Effect on NT binding (NTR1; [3]): not much affected; Effect on NT binding in PC3 cells (NTR1; used at 20-180 μM): ineffective

Q: What does the source list for `Cc1cc2nc3c(=O)[nH]c(=O)nc-3n(C[C@H](O)[C@H](O)[C@H](O)CO)c2cc1C` [riboflavin]?
A: Effect on NT binding (NTR1; [3]): not much affected; Effect on NT binding in PC3 cells (NTR1; used at 20-180 μM): ineffective

Q: For `C=C(C)[C@H]1Cc2c(ccc3c2O[C@@H]2COc4cc(OC)c(OC)cc4[C@@H]2C3=O)O1` [rotenone], which “NT Binding Assay” value (NTR1) is on record?
A: +

Q: What about the Anti-cancer [1] of the same compound?
A: +

Q: For `C[C@@H]1O[C@@H](OC[C@H]2O[C@@H](Oc3c(-c4ccc(O)c(O)c4)oc4cc(O)cc(O)c4c3=O)[C@H](O)[C@@H](O)[C@@H]2O)[C@H](O)[C@H](O)[C@H]1O` [rutin], which “Efficacy for altering NT binding to NTR” value (NTR1; flavonoids) is on record?
A: inactive

Q: What does the source list for `[BH4-].[Na+]` [sodium borohydride]?
A: Effect on NT binding (NTR1): not much affected; Effect on NT binding in PC3 cells (NTR1; used at 1-3 mM): without effect

Q: For `COc1ccc2cc1Oc1ccc(cc1)C[C@H]1c3cc(c(OC)cc3CCN1C)Oc1c(OC)c(OC)cc3c1[C@H](C2)N(C)CC3` [tetrandrine], which “NT Binding Efficacy % increase” value (NTR1; [6]) is on record?
A: 35 % increase

Q: For `Cc1ncc(C[n+]2csc(CCO)c2C)c(N)n1` [thiamine], which “Effect on NT binding” value (NTR1; [3]) is on record?
A: not much affected

Q: And the “Effect on NT binding in PC3 cells” value (NTR1; used at 20-180 μM)?
A: ineffective

Q: Which results are given for `CN1CCN(CCCN2c3ccccc3Sc3ccc(C(F)(F)F)cc32)CC1` [trifluoperazine]?
A: NT Binding Efficacy % increase (NTR1; [6]): 16 % increase; IC50 ([2]; [agent] at which IP formation was decreased by 50%): > 100 µM; IP Formation Efficacy (% decrease) [2]: 14 % decrease

Q: Which “Effect on NT binding” value (NTR1; [3]) does the source give for `Cc1c(C)c2c(c(C)c1O)CCC(C)(C(=O)O)O2` (stereo not drawn) [trolox] here?
A: not much affected

Q: And the “Effect on NT binding in PC3 cells” value (NTR1; used at 10-100 μM)?
A: without effect

Q: With `CC1=CC(=O)c2ccccc2C1=O` [vitamin K, menadione] as the compound, how does the NT binding (% of control) at 180 µM (NTR1; 180 μM) read?
A: 168 ± 8%

Q: With `Cc1c(C)c2c(c(C)c1O)CC[C@@](C)(CCC[C@H](C)CCC[C@H](C)CCCC(C)C)O2` [α-tocoferol] as the compound, how does the “Effect on NT binding in PC3 cells” value (NTR1; used at 20-180 μM) read?
A: ineffective

Q: Which “Effect on NT binding in PC3 cells” value (NTR1; used at 20-180 μM) does the source give for `CC1=C(/C=C/C(C)=C/C=C/C(C)=C/C=C/C=C(C)/C=C/C=C(C)/C=C/C2=C(C)CCCC2(C)C)C(C)(C)CCC1` [β-carotene] here?
A: ineffective

Q: Which “Effect on NT binding in PC3 cells” value (NTR1; used at 10-100 μM) does the source give for (−)-epigallocatechin gallate here?
A: without effect

Q: For antimycin A, which Anti-cancer [1] is on record?
A: +
